Reference: publication PMC5142624, “Reduced Activity of Mutant Calcium-Dependent Protein Kinase 1 Is Compensated in Plasmodium falciparum through the Action of Protein Kinase G” (mBio, 2016)

Key:
[1] = system: wild-type T. gondii parasites; design: method as in PMID 20436472, PMID 20485436; conditions: cited from earlier work
recombinant PfCDPK1 WT [2] = target: T1, recombinant PfCDPK1 WT (Plasmodium falciparum, UniProt P62344); assay: BKI library screening, in vitro kinase assay (KinaseGlo); format: biochemical; conditions: 10 µM ATP, 90 min at 30°C; two independent experiments in triplicate
T1 construct: made in house; host or cells: Escherichia coli BLR(DE3)pLysS, pGEX4T1
T1 sequence (P62344 whole entry): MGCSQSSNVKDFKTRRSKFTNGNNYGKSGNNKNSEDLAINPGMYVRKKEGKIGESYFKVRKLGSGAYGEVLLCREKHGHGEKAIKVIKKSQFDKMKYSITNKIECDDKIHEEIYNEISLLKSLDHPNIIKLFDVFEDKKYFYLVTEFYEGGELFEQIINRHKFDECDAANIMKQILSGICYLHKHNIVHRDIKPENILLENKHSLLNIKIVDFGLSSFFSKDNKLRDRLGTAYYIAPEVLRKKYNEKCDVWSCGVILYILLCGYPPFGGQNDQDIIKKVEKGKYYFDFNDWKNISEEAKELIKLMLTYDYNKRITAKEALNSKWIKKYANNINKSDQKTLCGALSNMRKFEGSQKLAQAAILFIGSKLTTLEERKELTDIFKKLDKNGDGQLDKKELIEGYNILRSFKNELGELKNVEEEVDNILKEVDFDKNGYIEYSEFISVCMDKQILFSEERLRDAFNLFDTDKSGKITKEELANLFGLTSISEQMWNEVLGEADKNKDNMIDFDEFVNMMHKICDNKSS
Experimental: (§1) Recombinant PfCDPK1 WT and PfCDPK1 T145M were used in the in vitro kinase assay to calculate the IC50s for the library of bumped kinase inhibitors. Thirty-one BKIs belonging to the pyrazolopyrimidine scaffold were screened ([18][–][21]). Protein kinase activity of recombinant enzymes was assayed using 20 µM synthetic peptide substrate […] […] These reactions were performed in a buffered solution containing 1 mM EGTA (pH 7.2), 10 mM MgCl2, 20 mM HEPES (pH 7.5), 0.1% BSA, and enzyme activation reagent containing 2 mM CaCl2. The reactions were initiated with addition of 10 µM ATP, and the reaction mixtures were incubated for 90 min at 30°C. […] The KinaseGlo (Promega, Madison, WI) luminescence-based assay, in which luminescence is inversely related to kinase activity and directly related to […], was used as previously described ([21]).

recombinant PfCDPK1 WT [3] = assay: as above; format: biochemical, Plasmodium falciparum; conditions: PfCDPK1 WT vs T145M recombinant enzymes
Experimental: as §1

[4] = target: T2, recombinant PfCDPK1 T145M (Plasmodium falciparum, UniProt P62344, T145M); assay: as above; format: biochemical; conditions: methionine gatekeeper mutant T145M; 10 µM ATP, 90 min at 30°C; read-out: PfCDPK1Met IC50
T2 construct: Full-length CDPK1 WT and five mutant proteins with different substitutions at the gatekeeper position (residue 145) were expressed in E. coli; made in house; host or cells: Escherichia coli BLR(DE3)pLysS, pGEX4T1
T2 sequence (P62344 whole entry T145M): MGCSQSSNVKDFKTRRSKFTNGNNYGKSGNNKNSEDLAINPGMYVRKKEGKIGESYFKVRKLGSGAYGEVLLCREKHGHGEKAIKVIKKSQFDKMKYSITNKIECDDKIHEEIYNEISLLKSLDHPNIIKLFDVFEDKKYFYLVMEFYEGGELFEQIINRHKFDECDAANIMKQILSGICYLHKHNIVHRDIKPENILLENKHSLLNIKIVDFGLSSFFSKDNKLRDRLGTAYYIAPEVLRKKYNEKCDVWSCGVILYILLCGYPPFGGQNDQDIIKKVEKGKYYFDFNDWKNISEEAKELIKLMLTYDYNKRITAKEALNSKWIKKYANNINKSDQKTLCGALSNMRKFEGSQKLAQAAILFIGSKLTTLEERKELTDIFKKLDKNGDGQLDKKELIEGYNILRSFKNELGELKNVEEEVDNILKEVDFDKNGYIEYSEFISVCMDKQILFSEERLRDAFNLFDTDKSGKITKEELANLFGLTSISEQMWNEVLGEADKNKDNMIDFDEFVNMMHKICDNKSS
Experimental: as §1

[5] = target: recombinant P. falciparum cGMP-dependent protein kinase (PfPKG) (Plasmodium falciparum, UniProt Q8I719); assay: PfPKG in vitro kinase activity assay (luminescence); format: biochemical; conditions: 2 µM ATP, 20 µM cGMP, 2 h at 30°C; read-out: IC50 (SD) for PfPKG
Sequence of recombinant P. falciparum cGMP-dependent protein kinase (PfPKG) (Q8I719 whole entry): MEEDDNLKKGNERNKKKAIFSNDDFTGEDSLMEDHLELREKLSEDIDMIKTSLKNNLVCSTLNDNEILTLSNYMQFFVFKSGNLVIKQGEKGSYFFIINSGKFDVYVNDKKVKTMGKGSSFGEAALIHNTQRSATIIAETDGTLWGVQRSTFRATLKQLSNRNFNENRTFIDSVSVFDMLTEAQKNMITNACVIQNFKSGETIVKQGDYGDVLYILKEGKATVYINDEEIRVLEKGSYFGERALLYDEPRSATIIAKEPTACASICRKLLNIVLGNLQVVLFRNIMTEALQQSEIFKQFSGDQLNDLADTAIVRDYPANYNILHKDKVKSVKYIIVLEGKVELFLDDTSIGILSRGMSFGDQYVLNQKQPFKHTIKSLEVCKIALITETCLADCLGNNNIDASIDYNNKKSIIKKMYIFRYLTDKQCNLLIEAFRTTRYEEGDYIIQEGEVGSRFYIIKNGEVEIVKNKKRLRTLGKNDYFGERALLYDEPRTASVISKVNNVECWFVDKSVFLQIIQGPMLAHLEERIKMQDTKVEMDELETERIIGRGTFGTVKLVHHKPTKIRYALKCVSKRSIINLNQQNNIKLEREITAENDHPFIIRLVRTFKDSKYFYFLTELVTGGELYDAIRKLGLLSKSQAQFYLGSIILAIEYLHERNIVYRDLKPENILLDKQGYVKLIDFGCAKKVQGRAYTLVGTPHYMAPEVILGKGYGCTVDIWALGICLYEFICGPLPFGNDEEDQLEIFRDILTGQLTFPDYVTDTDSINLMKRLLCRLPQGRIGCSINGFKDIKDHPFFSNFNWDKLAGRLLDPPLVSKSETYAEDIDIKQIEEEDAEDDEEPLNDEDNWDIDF
Experimental: Compound efficacy against recombinant P. falciparum cGMP-dependent protein kinase (PfPKG) was determined using a novel nonradioactive and high-throughput assay. This assay evaluates protein kinase activity by measuring changes in […] ATP concentration via luminescence after PfPKG enzyme phosphorylation of a peptide substrate, PKCtide ([…]) (SignalChem, Richmond, BC, Canada). The in vitro kinase assay was set up with 26 µM PKCtide, 30 nM PfPKG, and 20 µM cGMP in a buffered solution containing 20 mM β-glycerol phosphate, 20 mM MgCl2, 25 mM HEPES (pH 7.5) (KOH), 0.1% bovine serum albumin (BSA), and 2 mM DTT ([37]). The reaction was initiated with addition of 2 µM ATP. The reaction mixture was incubated at 30°C and 90-rpm agitation for 2 h. Reaction wells with no PfPKG, no peptide substrate, and no cGMP were included in each assay plate as internal negative controls.

[6] = system: wild-type parasites (P. falciparum NF54); assay: Asexual parasite growth inhibition (SYBR green I assay); format: cell-based, Plasmodium falciparum; conditions: BKIs
CDPK1 T145M parasites = assay: as above; format: cell-based, Plasmodium falciparum; conditions: BKIs
Experimental: The parasites were electroporated as described earlier ([39]). Briefly, the ring-stage parasites at ~5% parasitemia were electroporated with 50 μg each of pL6CK1Met or pL6CK1Ser plasmid and pUF1 plasmid with the settings of 0.31 kV, 960 μF, and maximum capacitance on a Bio-Rad Gene Pulser II. WR99210 and DSM267 ([40]) were applied at the concentrations of 2 and 150 nM, respectively, after 24 h of transfection. The transgenic PfCDPK1 T145M parasites were cloned by limiting dilution in a 96-well plate. The PfCDPK1 gene sequence was amplified using primers ck1f1 (5′ […] 3′) and ck1r3wt (5′ […] 3′) specific for the region outside the homology arm of the plasmid, and the desired mutation was confirmed by DNA sequencing.
Asexual parasites were synchronized for two consecutive cycles by sorbitol treatment ([41]) and set up at 0.2% trophozoite stage (30 to 36 h postinvasion) in a 96-well plate. The growth progression was monitored for 7 days, and the growth rate of the parasites was calculated by sampling the culture every 24 h and measuring the fluorescence readout using the SYBR green I assay as described earlier ([42], [43]).

| SMILES | effect on microneme secretion and invasion of host cells [1] | IC50 (recombinant PfCDPK1 WT [2]) [nM] | fold-greater effect in vitro on wild-type enzyme than on methionine mutant (recombinant PfCDPK1 WT [3]) [fold] | IC50 [4] [nM] | IC50 [5] [nM] | EC50 [6] [nM] | EC50 (CDPK1 T145M parasites) [nM] |
| --- | --- | --- | --- | --- | --- | --- | --- |
| Cc1cccc(Cc2nn(C(C)(C)C)c3ncnc(N)c23)c1 [3MBPP1] | block in microneme secretion and subsequent invasion of host cells |  |  |  |  |  |  |
| CCOc1ccc2cc(-c3nn(CC4CCN(C)CC4)c4ncnc(N)c34)ccc2c1 [compound 1294] |  | 162 | 10 | > 2000 | 262 | 10900 | 6970 |
| CCOc1ccc2cc(-c3nn(CC4CCN(C)CC4)c4ncnc(N)c34)ccc2n1 [compound 1369] |  | 438 |  | > 2000 | > 2000 |  |  |
